Reference: PubChem BioAssay AID1963980 (Molecular Pharmacology Branch, DTP, NCI, 2024)

Test system: 475296-252-R-J1-PDC spheroid viability
Experiment: Anticancer human tumor 475296-252-R-J1-PDC patient-derived rectal carcinoma cell line growth inhibition [PI3K]
Conditions: spheroids with HUVEC and MSC; for viability, T/C: stronger effect = lower value; active = viability on the fitted dose curve at most 10% of control; inactive = the rest
Summary of the method: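 Agents were dosed from a top concentration near clinical Cmax (otherwise 10 microM) in half-log decrements, alone or combined with PI3K inhibitors. The spheroids contain tumor cells plus endothelial (HUVEC) and MSC stroma; viability is measured.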

[1] = curve of first compound, second compound 0.0316 µM
[2] = curve of first compound, second compound 0.1 µM
[3] = curve of first compound, second compound 0.316 µM
[4] = curve of first compound, second compound 1 µM
[5] = second compound 0.0316 µM, first compound 0.0316 µM
[6] = second compound 0.0316 µM, first compound 0.1 µM
[7] = second compound 0.1 µM, first compound 0.0316 µM
[8] = second compound 0.1 µM, first compound 0.1 µM
[9] = second compound 0.316 µM, first compound 0.0316 µM
[10] = second compound 0.316 µM, first compound 0.1 µM
[11] = second compound 1 µM, first compound 0.0316 µM
[12] = second compound 1 µM, first compound 0.1 µM
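Note: spheroids exposed to agents for seven days before readout.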

Cn1ncnc1[C@H]1c2n[nH]c(=O)c3cc(F)cc(c23)N[C@@H]1c1ccc(F)cc1 + COc1c(OCCCN2CCOCC2)ccc2c3n(c(=NC(=O)c4cnc(N)nc4)nc12)CCN3
> 100 nM: IC50 (curve of first compound, second compound 0.00316 µM) | IC50 (curve of first compound, second compound 0.01 µM) | IC50 [1] | IC50 [2] | IC50 [3] | IC50 [4]
inactive: viability, T/C (second compound 0.00316 µM, first compound 0.000316 µM) 91.6% | viability, T/C (second compound 0.00316 µM, first compound 0.001 µM) 99% | viability, T/C (second compound 0.00316 µM, first compound 0.00316 µM) 115% | viability, T/C (second compound 0.00316 µM, first compound 0.01 µM) 99.5% | viability, T/C (second compound 0.00316 µM, first compound 0.0316 µM) 116% | viability, T/C (second compound 0.00316 µM, first compound 0.1 µM) 109% | viability, T/C (second compound 0.01 µM, first compound 0.000316 µM) 95.5% | viability, T/C (second compound 0.01 µM, first compound 0.001 µM) 104% | viability, T/C (second compound 0.01 µM, first compound 0.00316 µM) 108% | viability, T/C (second compound 0.01 µM, first compound 0.01 µM) 99.4% | viability, T/C (second compound 0.01 µM, first compound 0.0316 µM) 116% | viability, T/C (second compound 0.01 µM, first compound 0.1 µM) 94.7% | viability, T/C (second compound 0.0316 µM, first compound 0.000316 µM) 93.1% | viability, T/C (second compound 0.0316 µM, first compound 0.001 µM) 98% | viability, T/C (second compound 0.0316 µM, first compound 0.00316 µM) 106% | viability, T/C (second compound 0.0316 µM, first compound 0.01 µM) 99.2% | viability, T/C [5] 94.2% | viability, T/C [6] 93.3% | viability, T/C (second compound 0.1 µM, first compound 0.000316 µM) 85.3% | viability, T/C (second compound 0.1 µM, first compound 0.001 µM) 99.1% | viability, T/C (second compound 0.1 µM, first compound 0.00316 µM) 94.8% | viability, T/C (second compound 0.1 µM, first compound 0.01 µM) 75.1% | viability, T/C [7] 85% | viability, T/C [8] 75.8% | viability, T/C (second compound 0.316 µM, first compound 0.000316 µM) 82.4% | viability, T/C (second compound 0.316 µM, first compound 0.001 µM) 73.1% | viability, T/C (second compound 0.316 µM, first compound 0.00316 µM) 71.7% | viability, T/C (second compound 0.316 µM, first compound 0.01 µM) 86.1% | viability, T/C [9] 67.8% | viability, T/C [10] 75.7% | viability, T/C (second compound 1 µM, first compound 0.000316 µM) 65.4% | viability, T/C (second compound 1 µM, first compound 0.001 µM) 65% | viability, T/C (second compound 1 µM, first compound 0.00316 µM) 63.5% | viability, T/C (second compound 1 µM, first compound 0.01 µM) 70.8% | viability, T/C [11] 70.8% | viability, T/C [12] 55.4%

CNC(=O)c1ccc(N2C(=S)N(c3ccc(C#N)c(C(F)(F)F)c3)C(=O)C2(C)C)cc1F + Cc1nc(NC(=O)N2CCCC2C(N)=O)sc1-c1ccnc(C(C)(C)C(F)(F)F)c1
> 10000 nM: IC50 [1] | IC50 [2] | IC50 [3] | IC50 [4] | IC50 (curve of first compound, second compound 3.16 µM) | IC50 (curve of first compound, second compound 10 µM)
inactive: viability, T/C [5] 101% | viability, T/C [6] 88.1% | viability, T/C (second compound 0.0316 µM, first compound 0.316 µM) 98.8% | viability, T/C (second compound 0.0316 µM, first compound 1 µM) 87.7% | viability, T/C (second compound 0.0316 µM, first compound 3.16 µM) 95.7% | viability, T/C (second compound 0.0316 µM, first compound 10 µM) 95.2% | viability, T/C [7] 102% | viability, T/C [8] 91.8% | viability, T/C (second compound 0.1 µM, first compound 0.316 µM) 99.6% | viability, T/C (second compound 0.1 µM, first compound 1 µM) 86.6% | viability, T/C (second compound 0.1 µM, first compound 3.16 µM) 111% | viability, T/C (second compound 0.1 µM, first compound 10 µM) 114% | viability, T/C [9] 92.2% | viability, T/C [10] 101% | viability, T/C (second compound 0.316 µM, first compound 0.316 µM) 86.1% | viability, T/C (second compound 0.316 µM, first compound 1 µM) 104% | viability, T/C (second compound 0.316 µM, first compound 3.16 µM) 101% | viability, T/C (second compound 0.316 µM, first compound 10 µM) 108% | viability, T/C [11] 90.5% | viability, T/C [12] 104% | viability, T/C (second compound 1 µM, first compound 0.316 µM) 95.6% | viability, T/C (second compound 1 µM, first compound 1 µM) 102% | viability, T/C (second compound 1 µM, first compound 3.16 µM) 89.8% | viability, T/C (second compound 1 µM, first compound 10 µM) 109% | viability, T/C (second compound 3.16 µM, first compound 0.0316 µM) 81.1% | viability, T/C (second compound 3.16 µM, first compound 0.1 µM) 104% | viability, T/C (second compound 3.16 µM, first compound 0.316 µM) 92.3% | viability, T/C (second compound 3.16 µM, first compound 1 µM) 98.1% | viability, T/C (second compound 3.16 µM, first compound 3.16 µM) 108% | viability, T/C (second compound 3.16 µM, first compound 10 µM) 97.5% | viability, T/C (second compound 10 µM, first compound 0.0316 µM) 80.8% | viability, T/C (second compound 10 µM, first compound 0.1 µM) 89.5% | viability, T/C (second compound 10 µM, first compound 0.316 µM) 104% | viability, T/C (second compound 10 µM, first compound 1 µM) 88% | viability, T/C (second compound 10 µM, first compound 3.16 µM) 98.9% | viability, T/C (second compound 10 µM, first compound 10 µM) 90.7%

CC(Nc1ccc2c(c1)OCCn1cc(N3C(=O)OCC3C(F)F)nc1-2)C(N)=O (stereo unspecified)
> 1000 nM: IC50 (compound alone, run of 06/12/2023)
inactive: viability, T/C (compound 0.00316 µM) 98.8% [middle of 8 runs] | viability, T/C (compound 0.01 µM) 96.9% [middle of 8 runs] | viability, T/C (compound 0.0316 µM) 98.1% [middle of 8 runs] | viability, T/C (compound 0.1 µM) 96.8% [middle of 8 runs] | viability, T/C (compound 0.316 µM) 91.3% [middle of 8 runs] | viability, T/C (compound 1 µM) 81.1% [middle of 7 runs]
